According to ChEMBL document CHEMBL1201862, “PubChem BioAssay data set” (2004):
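The compound was tested at five concentrations on cells cultured in 96-well plates, with a 48-hour exposure period. Here, GI50 denotes the concentration required for 50% inhibition of growth.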 The source made the active and inactive calls. Cut-off read from the data, not from the text of the source: active = GI50 up to about 1.1 µM and inactive = higher.

What was measured:
Experiment in all cases: growth of human tumour cells (NCI), 48 h
[1] = system: Malme-3M
[2] = system: U-251
[3] = system: SK-MEL-28
[4] = system: MDA-MB-435
[5] = system: NCI-H23
[6] = system: SF-295
[7] = system: HOP-62
[8] = system: SK-MEL-2
[9] = system: UO-31
[10] = system: NCI-H226
[11] = system: ACHN
[12] = system: SF-539
[13] = system: DU-145
[14] = system: BT-549
[15] = system: HT-29
[16] = system: SW-620
[17] = system: OVCAR-3
[18] = system: MCF7
[19] = system: A498
[20] = system: IGROV-1

Row | Structure (SMILES) | GI50 [1] | GI50 [2] | GI50 [3] | GI50 [4] | GI50 [5] | GI50 [6] | GI50 [7] | GI50 [8] | GI50 [9] | GI50 [10] | GI50 [11] | GI50 [12] | GI50 [13] | GI50 [14] | GI50 [15] | GI50 [16] | GI50 [17] | GI50 [18] | GI50 [19] | GI50 [20]
1 | Cn1nc(S(N)(=O)=O)s/c1=N/C(N)=S | > 100 µM (inactive) | > 100 µM (inactive) | > 100 µM (inactive) | > 100 µM (inactive) | > 100 µM (inactive) | > 100 µM (inactive) | > 100 µM (inactive) | > 100 µM (inactive) | > 100 µM (inactive) | > 100 µM (inactive) | > 100 µM (inactive) | > 100 µM (inactive) | > 100 µM (inactive) | > 100 µM (inactive) | > 100 µM (inactive) | > 100 µM (inactive) | > 100 µM (inactive) | > 100 µM (inactive) | > 100 µM (inactive) | –
2 | O=P(OCc1ccccc1)(OCc1ccccc1)C(O)/C=C/c1ccccc1 (stereo unspecified) | 19.6 µM (inactive) | 13.1 µM (inactive) | 37.9 µM (inactive) | 17.3 µM (inactive) | 20.2 µM (inactive) | 20.3 µM (inactive) | 21.8 µM (inactive) | 20.7 µM (inactive) | 26.6 µM (inactive) | 34.8 µM (inactive) | 29.1 µM (inactive) | – | 42.9 µM (inactive) | 28.2 µM (inactive) | 21.3 µM (inactive) | 26.1 µM (inactive) | 20.9 µM (inactive) | 27.6 µM (inactive) | 17.9 µM (inactive) | 19.6 µM (inactive)
3 | Nc1ncnc2c1ncn2[C@@H]1O[C@H](COC(c2ccccc2)(c2ccccc2)c2ccccc2)[C@@H](OC(=S)Oc2ccccc2)[C@@H]1F | – | 10.2 µM (inactive) | 15.2 µM (inactive) | 4.03 µM (inactive) | 3.94 µM (inactive) | 7.98 µM (inactive) | 15.5 µM (inactive) | 5.47 µM (inactive) | 4.16 µM (inactive) | 11.4 µM (inactive) | 10.7 µM (inactive) | 8.99 µM (inactive) | 15.1 µM (inactive) | 4.95 µM (inactive) | 6.67 µM (inactive) | 4.47 µM (inactive) | 4.55 µM (inactive) | 3.82 µM (inactive) | 18.3 µM (inactive) | 3.23 µM (inactive)
4 | CCCCC(=O)c1ccc2ccccc2c1O | – | > 100 µM (inactive) | > 100 µM (inactive) | > 100 µM (inactive) | > 100 µM (inactive) | > 100 µM (inactive) | > 100 µM (inactive) | > 100 µM (inactive) | > 100 µM (inactive) | > 100 µM (inactive) | > 100 µM (inactive) | > 100 µM (inactive) | > 100 µM (inactive) | > 100 µM (inactive) | > 100 µM (inactive) | > 100 µM (inactive) | – | 52.8 µM (inactive) | > 100 µM (inactive) | > 100 µM (inactive)
5 | Nc1nncc2[nH]cnc12 | – | > 64.3 µM (inactive) | > 100 µM (inactive) | > 74.3 µM (inactive) | – | 42.8 µM (inactive) | > 100 µM (inactive) | > 100 µM (inactive) | > 100 µM (inactive) | > 100 µM (inactive) | 50.1 µM (inactive) | 94.4 µM (inactive) | > 62.5 µM (inactive) | 26.9 µM (inactive) | 39.4 µM (inactive) | 31 µM (inactive) | > 100 µM (inactive) | 23.4 µM (inactive) | > 62.2 µM (inactive) | 57.8 µM (inactive)
6 | Clc1ccc(/N=C2\c3ccccc3CN2c2ccc(Cl)cc2)cc1 | – | > 100 µM (inactive) | 64 µM (inactive) | > 100 µM (inactive) | 89.5 µM (inactive) | 10.4 µM (inactive) | 63.1 µM (inactive) | 4.68 µM (inactive) | > 100 µM (inactive) | > 100 µM (inactive) | 0.668 µM (active) | 30.2 µM (inactive) | 11.6 µM (inactive) | > 100 µM (inactive) | 19 µM (inactive) | > 100 µM (inactive) | 52.7 µM (inactive) | 5.2 µM (inactive) | > 100 µM (inactive) | 39.8 µM (inactive)
7 | Cc1[nH]c2ccccc2c1/C=N/NC(=O)c1cccc(I)c1 | 24.2 µM (inactive) | 21.5 µM (inactive) | 22.7 µM (inactive) | 17.3 µM (inactive) | 19.1 µM (inactive) | 18.7 µM (inactive) | 17.6 µM (inactive) | 19.2 µM (inactive) | 20.7 µM (inactive) | – | 26.8 µM (inactive) | 18.8 µM (inactive) | 27.9 µM (inactive) | 21.9 µM (inactive) | 15.7 µM (inactive) | 29 µM (inactive) | 20.7 µM (inactive) | 19.5 µM (inactive) | 18.4 µM (inactive) | 17.7 µM (inactive)
8 | COc1ccc(C(SCCO)(c2ccccc2)c2ccccc2)cc1 | 18.9 µM (inactive) | 13.1 µM (inactive) | 17.1 µM (inactive) | 10.5 µM (inactive) | 16.9 µM (inactive) | 13.4 µM (inactive) | 15.4 µM (inactive) | 13.1 µM (inactive) | 14.9 µM (inactive) | 12.7 µM (inactive) | 14.1 µM (inactive) | 15.6 µM (inactive) | 13.6 µM (inactive) | 16.6 µM (inactive) | 14.5 µM (inactive) | 20.6 µM (inactive) | 14 µM (inactive) | 10.5 µM (inactive) | 17.2 µM (inactive) | –
9 | O=C(CCCC(=O)N1CC(CCl)c2ccc([N+](=O)[O-])cc21)N1CC(CCl)c2ccc([N+](=O)[O-])cc21 (stereo unspecified) | – | > 100 µM (inactive) | > 100 µM (inactive) | > 100 µM (inactive) | > 100 µM (inactive) | > 100 µM (inactive) | > 100 µM (inactive) | > 100 µM (inactive) | > 100 µM (inactive) | > 100 µM (inactive) | > 100 µM (inactive) | > 100 µM (inactive) | 81.3 µM (inactive) | > 100 µM (inactive) | > 100 µM (inactive) | > 100 µM (inactive) | > 100 µM (inactive) | > 100 µM (inactive) | 34 µM (inactive) | –
10 | O/N=C1/C2CC3CC1(c1ccccc1)CC(/C3=N/O)/C2=N\O (stereo unspecified) | > 100 µM (inactive) | > 100 µM (inactive) | > 100 µM (inactive) | > 100 µM (inactive) | > 100 µM (inactive) | > 100 µM (inactive) | > 100 µM (inactive) | > 100 µM (inactive) | > 100 µM (inactive) | > 100 µM (inactive) | > 100 µM (inactive) | > 100 µM (inactive) | > 100 µM (inactive) | > 100 µM (inactive) | > 100 µM (inactive) | > 100 µM (inactive) | > 100 µM (inactive) | > 100 µM (inactive) | > 100 µM (inactive) | –
11 | Cc1c[nH]c(C(=O)O)c1-c1ccc2c(-c3ccccc3)nc3ccccc3n12 | – | 48.3 µM (inactive) | 31.4 µM (inactive) | 23.2 µM (inactive) | 35.4 µM (inactive) | 22.7 µM (inactive) | 15.7 µM (inactive) | 20.7 µM (inactive) | 34.4 µM (inactive) | 20.3 µM (inactive) | 52.4 µM (inactive) | 19.5 µM (inactive) | 36.7 µM (inactive) | 30.6 µM (inactive) | 22.8 µM (inactive) | 41.2 µM (inactive) | 16.4 µM (inactive) | 34 µM (inactive) | 13.9 µM (inactive) | 22.9 µM (inactive)
12 | COc1cc(/C=C2\C(=O)N(c3ccccc3Cl)C(c3ccccc3)S2(=O)=O)cc(OC)c1OC (stereo unspecified) | 28.7 µM (inactive) | 24.2 µM (inactive) | 39 µM (inactive) | 33.3 µM (inactive) | 39.1 µM (inactive) | 34 µM (inactive) | 53 µM (inactive) | 44.1 µM (inactive) | 30.3 µM (inactive) | 42 µM (inactive) | > 100 µM (inactive) | 20 µM (inactive) | 59 µM (inactive) | 36 µM (inactive) | 16.3 µM (inactive) | 37.3 µM (inactive) | 47.4 µM (inactive) | 25.6 µM (inactive) | > 100 µM (inactive) | –
13 | COc1cc2c(cc1OCCCN1CCOCC1)N=C[C@@H]1CCCN1C2=O | 8.3 µM (inactive) | 4.41 µM (inactive) | 12.6 µM (inactive) | 11.8 µM (inactive) | – | 9.59 µM (inactive) | 12.5 µM (inactive) | 11.2 µM (inactive) | 11.5 µM (inactive) | 4.66 µM (inactive) | 14 µM (inactive) | 4.7 µM (inactive) | 21.7 µM (inactive) | 6.53 µM (inactive) | 8.79 µM (inactive) | 3.33 µM (inactive) | 2.83 µM (inactive) | 7.24 µM (inactive) | 10.1 µM (inactive) | –
14 | C=CCNC(NCC=C)=C(C(Cl)=C(Cl)Cl)[N+](=O)[O-] | 16.4 µM (inactive) | > 100 µM (inactive) | 79.3 µM (inactive) | 32 µM (inactive) | 34.1 µM (inactive) | > 100 µM (inactive) | > 100 µM (inactive) | > 100 µM (inactive) | 37.5 µM (inactive) | > 100 µM (inactive) | 31.8 µM (inactive) | 21.3 µM (inactive) | 78.3 µM (inactive) | 26 µM (inactive) | 54.6 µM (inactive) | 22.9 µM (inactive) | 26.2 µM (inactive) | 35.9 µM (inactive) | > 100 µM (inactive) | –
15 | CCOC(=O)C(CS)NC(=O)CCCCCCCC(=O)O (stereo unspecified) | > 100 µM (inactive) | > 100 µM (inactive) | > 100 µM (inactive) | > 100 µM (inactive) | > 100 µM (inactive) | > 100 µM (inactive) | > 100 µM (inactive) | > 100 µM (inactive) | > 100 µM (inactive) | > 100 µM (inactive) | 78.3 µM (inactive) | – | > 100 µM (inactive) | > 100 µM (inactive) | > 100 µM (inactive) | > 100 µM (inactive) | > 100 µM (inactive) | > 100 µM (inactive) | > 100 µM (inactive) | > 100 µM (inactive)
